Measured values taken from patent publication US8106048B2, “Heterocyclic NF-κB inhibitors” (4SC AG, priority 2004, dated 2012).

system: A549-NF-κB-SEAP reporter cells; assay: Inhibition of NF-κB-induced inflammation: […] NINA Instant Assay, TNF-α stimulated SEAP reporter; assay type: cell-based; settings: % inhibition classes
Source text: For the determination of anti-inflammatory activity of the compounds the […]® NINA Instant Assay from Cell Culture Service GmBH was used. This assay is based on […] recombinant A549-NF-κB-SEAP reporter cells preceded in 96-well flat bottom plates. As the transfected reportergen for SEAP (secreted embryonic alkaline phosphatase) is under transcriptional control of a NF-κB-responsive element, the expression of this reporter is activated upon stimulation with TNF-α. SEAP secretion into the culture supernatant can be detected by the chemiluminescent substrate CSPD®. Test compounds that inhibit the NF-κB activation show reduced SEAP activity and reduced luminescent readout.
Following 18 h of reactivation at 37° C., 5% CO2 and 90% relative humidity, the cells were incubated with 0.01 up to 100 μM of test compound for 4.5 h before stimulation with 2 ng/ml TNF-α. After stimulation with TNF-α for 22 h endogenous phosphatases were inactivated and CSPD® substrate was supplied for 40 min. SEAP activity then was quantified by measuring luminescence as relative light units (RLU) using a Tecan Ultra reader. Each data point was recorded in quadruplicates and EC50 values were calculated via fitting function and the Microsoft Excel Solver.

| Structure (SMILES) | Biological activity (inhibition in the NF-κB inflammation assay) |
| --- | --- |
| O=C(c1csc(C2CCN(C(=O)c3ccccc3OC(F)(F)F)CC2)n1)N1CCOC(c2ccccc2)C1 (centres unmarked) [compound 146] | + (“+” stands for 50-80% inhibition) |
| CC(C)(C)OC(=O)N1CCC(c2nc(C(=O)NC(=N)Nc3nc4ccccc4[nH]3)cs2)CC1 [compound 95] | +++ (“+++” stands for 90-100% inhibition) |
| CC(c1cc2ccccc2[nH]1)N(C)C(=O)c1csc(C2CCN(C(=O)c3ccccc3OC(F)(F)F)CC2)n1 (centres unmarked) [compound 145] | + (“+” stands for 50-80% inhibition) |
| O=C(Nc1ccc2c(c1)OCCO2)N1CCC(c2nc(C(=O)N3CCN(c4cccc(C(F)(F)F)c4)CC3)cs2)CC1 [compound 136] | + (“+” stands for 50-80% inhibition) |
| O=C(c1csc(C2CCN(S(=O)(=O)c3ccccc3Br)CC2)n1)N1CCN(c2cccc(C(F)(F)F)c2)CC1 [compound 196] | + (“+” stands for 50-80% inhibition) |
| O=C(c1csc(C2CCN(Cc3ccc(F)cc3Cl)CC2)n1)N1CCN(c2cccc(C(F)(F)F)c2)CC1 [compound 171] | + (“+” stands for 50-80% inhibition) |
| Nc1nc(NC(=O)c2csc(C3CCN(C(=O)c4ccccc4OC(F)(F)F)CC3)n2)n[nH]1 [compound 89] | + (“+” stands for 50-80% inhibition) |
| CS(=O)(=O)c1ccc(N2CCC(c3nc(C(=O)N4CCN(c5cccc(C(F)(F)F)c5)CC4)cs3)CC2)cc1 [compound 117] | + (“+” stands for 50-80% inhibition) |
| COc1ccccc1C(=O)N1CCN(c2nc(C(=O)N3CCN(c4cccc(C(F)(F)F)c4)CC3)cs2)CC1 [compound 38] | +++ (“+++” stands for 90-100% inhibition) |
| O=C(c1csc(N2CCN(c3cccc(C(F)(F)F)c3)CC2)n1)N1CCN(c2cccc(C(F)(F)F)c2)CC1 [compound 67] | + (“+” stands for 50-80% inhibition) |
| COC(=O)CC1c2ccccc2CCN1C(=O)c1csc(C2CCN(C(=O)Cc3ccc(F)cc3)CC2)n1 (centres unmarked) [compound 227] | + (“+” stands for 50-80% inhibition) |
| O=C(Nc1nc(C(=O)N2CCN(c3ccc(Cl)c(Cl)c3)CC2)cs1)c1ccccc1OC(F)(F)F [compound 41] | +++ (“+++” stands for 90-100% inhibition) |
| O=C(Nc1ccc2c(c1)OCCO2)N1CCC(c2nc(C(=O)N3CCN(c4cccc(C(F)(F)F)c4)CC3)cs2)CC1 [compound 75] | ++ (“++” means 80-90%) |
| O=C(c1csc(C2CCN(C(=O)c3ccccc3OC(F)(F)F)CC2)n1)N1CCN(c2cccc(Cl)c2)CC1 [compound 151] | + (“+” stands for 50-80% inhibition) |
| Cc1cc2nc(NC(=O)c3csc(C4CCN(C(=O)Cc5ccc(F)cc5)CC4)n3)[nH]c2cc1C [compound 131] | + (“+” stands for 50-80% inhibition) |
| O=C(c1csc(C2CCN(C(=O)c3cc(-c4ccc(Cl)cc4)oc3C(F)(F)F)CC2)n1)N1CCN(c2cccc(C(F)(F)F)c2)CC1 [compound 218] | +++ (“+++” stands for 90-100% inhibition) |
| O=C(Cc1ccc(F)cc1)N1CCC(c2nc(C(=O)N3CCC(n4nnc5ccccc54)CC3)cs2)CC1 [compound 182] | + (“+” stands for 50-80% inhibition) |
| COc1cc(NC(=O)N2CCC(c3nc(C(=O)N4CCN(c5cccc(C(F)(F)F)c5)CC4)cs3)CC2)cc(OC)c1OC [compound 81] | ++ (“++” means 80-90%) |
| O=C(c1csc(C2CCN(C(=O)c3ccccc3OC(F)(F)F)CC2)n1)N(CCO)Cc1ccccc1 [compound 148] | ++ (“++” means 80-90%) |
| O=C(Nc1ccccc1OC(F)(F)F)N1CCC(c2nc(C(=O)N3CCN(c4cccc(C(F)(F)F)c4)CC3)cs2)CC1 [compound 79] | +++ (“+++” stands for 90-100% inhibition) |
| O=C(c1csc(C2CCN(Cc3ccc(OC(F)(F)F)cc3)CC2)n1)N1CCN(c2cccc(C(F)(F)F)c2)CC1 [compound 172] | + (“+” stands for 50-80% inhibition) |
| O=C(c1csc(C2CCN(Cc3ccc(C(F)(F)F)cc3)CC2)n1)N1CCN(c2cccc(C(F)(F)F)c2)CC1 [compound 169] | + (“+” stands for 50-80% inhibition) |
| O=C(c1csc(C2CCN(S(=O)(=O)c3ccccc3)CC2)n1)N1CCN(c2cccc(C(F)(F)F)c2)CC1 [compound 208] | + (“+” stands for 50-80% inhibition) |

| Structure (SMILES) | Biological activity (inhibition in the NF-κB inflammation assay) |
| --- | --- |
| O=C(c1csc(N2CCN(Cc3ccccc3)CC2)n1)N1CCN(c2cccc(C(F)(F)F)c2)CC1 [compound 72] | +++ (“+++” stands for 90-100% inhibition) |
| Cc1cc(=O)[nH]c(NC(=O)c2csc(C3CCN(C(=O)c4ccccc4OC(F)(F)F)CC3)n2)n1 [compound 86] | + (“+” stands for 50-80% inhibition) |
| O=C(c1csc(C2CCN(c3ccc(C(F)(F)F)cc3)CC2)n1)N1CCN(c2cccc(C(F)(F)F)c2)CC1 [compound 155] | + (“+” stands for 50-80% inhibition) |
| O=C(c1csc(N2CCN(Cc3ccccc3)CC2)n1)N1CCN(C(c2ccccc2)c2ccccc2)CC1 [compound 71] | +++ (“+++” stands for 90-100% inhibition) |
| COc1nc(OC)nc(N2CCC(c3nc(C(=O)N4CCN(c5cccc(C(F)(F)F)c5)CC4)cs3)CC2)n1 [compound 176] | + (“+” stands for 50-80% inhibition) |
| CC(C)(C)OC(=O)N1CCN(c2nc(C(=O)N3CCN(c4cccc(C(F)(F)F)c4)CC3)cs2)CC1 [compound 63] | ++ (“++” means 80-90%) |
| COc1ccccc1N1CCN(c2nc(C(=O)N3CCN(c4cccc(C(F)(F)F)c4)CC3)cs2)CC1 [compound 65] | ++ (“++” means 80-90%) |
| COc1cc2c(cc1OC)CN(C(=O)c1csc(C3CCN(C(=O)Cc4ccc(F)cc4)CC3)n1)C(C)C2 (centres unmarked) [compound 232] | + (“+” stands for 50-80% inhibition) |
| O=C(O)N1CCC(c2nc(C(=O)N3CCN(c4cccc(C(F)(F)F)c4)CC3)cs2)CC1 [compound 113] | + (“+” stands for 50-80% inhibition) |
| O=C(c1csc(C2CCN(c3cc(C(F)(F)F)ccn3)CC2)n1)N1CCN(c2cccc(C(F)(F)F)c2)CC1 [compound 118] | + (“+” stands for 50-80% inhibition) |
| O=C(c1csc(C2CCN(c3ccc4c(c3)OCCO4)CC2)n1)N1CCN(c2cccc(C(F)(F)F)c2)CC1 [compound 157] | + (“+” stands for 50-80% inhibition) |
| Nc1cc(=O)[nH]c(NC(=O)c2csc(C3CCN(C(=O)c4ccccc4OC(F)(F)F)CC3)n2)n1 [compound 83] | + (“+” stands for 50-80% inhibition) |
| CN(C)c1nc(NC(=O)c2csc(C3CCN(C(=O)c4ccccc4OC(F)(F)F)CC3)n2)cc(=O)[nH]1 [compound 85] | + (“+” stands for 50-80% inhibition) |
| O=C(C=Cc1ccccc1)N1CCC(c2nc(C(=O)N3CCN(c4cccc(C(F)(F)F)c4)CC3)cs2)CC1 [compound 214] | ++ (“++” means 80-90%) |
| Cc1noc(C)c1C(=O)N1CCC(c2nc(C(=O)N3CCN(c4cccc(C(F)(F)F)c4)CC3)cs2)CC1 [compound 219] | + (“+” stands for 50-80% inhibition) |
| CN1CCOc2cc(C(=O)N3CCC(c4nc(C(=O)N5CCN(c6cccc(C(F)(F)F)c6)CC5)cs4)CC3)ccc21 [compound 210] | ++ (“++” means 80-90%) |
| O=C(Cc1ccc(F)cc1)N1CCC(c2nc(C(=O)N3CCc4ccccc4C3)cs2)CC1 [compound 163] | + (“+” stands for 50-80% inhibition) |
| CSc1nccc(N2CCN(C(=O)c3csc(C4CCN(C(=O)c5ccccc5OC(F)(F)F)CC4)n3)CC2)n1 [compound 124] | + (“+” stands for 50-80% inhibition) |
| N#Cc1ccc(C(=O)NCC2CCN(c3nc(C(=O)N4CCN(c5cccc(C(F)(F)F)c5)CC4)cs3)CC2)cc1 [compound 102] | + (“+” stands for 50-80% inhibition) |
| O=C(O)c1cccnc1C(=O)N1CCC(c2nc(C(=O)N3CCN(c4cccc(C(F)(F)F)c4)CC3)cs2)CC1 [compound 183] | + (“+” stands for 50-80% inhibition) |
| CC(=O)Nc1ccc(S(=O)(=O)N2CCC(c3nc(C(=O)N4CCN(c5cccc(C(F)(F)F)c5)CC4)cs3)CC2)cc1 [compound 207] | + (“+” stands for 50-80% inhibition) |
| O=C(c1csc(C2CCN(S(=O)(=O)c3ccc(Br)cc3)CC2)n1)N1CCN(c2cccc(C(F)(F)F)c2)CC1 [compound 199] | + (“+” stands for 50-80% inhibition) |

same assay, conditions: inhibition classes

| Structure (SMILES) | Biological activity (inhibition in the NF-κB inflammation assay) |
| --- | --- |
| COc1ccc(OC)c(N2CCC(c3nc(C(=O)N4CCN(c5cccc(C(F)(F)F)c5)CC4)cs3)CC2)c1 [compound 239] | + (“+” stands for 50-80% inhibition) |
| CNc1ccc(Cl)cc1C1c2ccccc2CCN1C(=O)c1csc(C2CCN(C(=O)Cc3ccc(F)cc3)CC2)n1 (centres unmarked) [compound 235] | + (“+” stands for 50-80% inhibition) |
